Source: patent US12673022B2, “Drug delivery system using solution” (Kyoto University, priority 2018, dated 2026)

Tested on: EGFP reporter cells (C2C12 cells)
Assay: EGFP-SSA assay: uptake of Cas9 protein/gRNA complex into cells (EGFP positive rate)
Assay type: cell-based, mouse
Settings: Example 1; compound 250.0 mM; reaction solution 1 (550 mM sodium chloride, 1 mM HEPES, Cas9 protein/gRNA), 30 minutes
Source text: EGFP-SSA assay: an abbreviation of EGFP-single strand annealing assay. The reporter cassette shown in FIG. 1 is inserted in EGFP reporter cells. In the middle of the EGFP sequence of the cassette, MmDMD-Ex51 sequence is inserted. Since the presence of MmDMD-Ex51 sequence, by which EGFP ORF is divided, EGFP protein is not usually translated. However, when target sequence of MmDMD-Ex51 is cleaved by Cas9 protein/gRNA complex, the upstream region (EG part) and the downstream region (FP part) of EGFP ORF are annealed via a homology area into a single strand, with the result that a full-length EGFP ORF emerges to produce EGFP protein. Based on this principle, the ratio of the number of cells producing EGFP is checked by the EGFP-SSA assay. In this manner, the amount of Cas9 protein/gRNA complex delivered to cells can be predicted.
(§1) Cas9 protein (0.4 μg), tracrRNA (34.18 ng), MmDmd Ex51 crRNA (29.48 ng), a 1 M HEPES buffer (0.05 μL) and a 5 M aqueous sodium chloride solution (5.5 μL) were mixed and diluted with UltraPure DNase/RNase-Free Distilled Water up to a liquid volume of 37.5 μL so as to obtain final concentrations: 8 ng/μL Cas9 protein, 0.68 ng/μL tracrRNA, 0.59 ng/μL MmDmd Ex51 crRNA, 1 mM HEPES, 550 mM sodium chloride, and 250 mM compound. To this solution, a 1000 mM compound solution (12.5 μL) was added and the solution mixture was incubated at normal temperature for 15 minutes.
as §1, with “buffer (2.5” for “buffer (0.05”, “solution (4.85” for “solution (5.5”, “crRNA, 50” for “crRNA, 1”, “HEPES, 485” for “HEPES, 550”, “minutes. Note that, in the cases where the final concentrations of the compound are 0.69 mM, 25 mM, 100 mM, 125 mM, 160 mM, 200 mM and 500 mM, the compound stock solution was diluted with UltraPure DNase/RNase-Free Distilled Water up to concentrations of 2.76 mM, 100 mM, 400 mM, 500 mM, 640 mM, 800 mM and 2000 mM, respectively, and then, added. […]” for “minutes.”
Cas9 protein (2.0 μg), tracrRNA (170.9 ng), MmDmd Ex51 crRNA (147.4 ng), a 1 M HEPES buffer (12.5 μL), a 5 M aqueous sodium chloride solution (18.35 μL) and a 1 M aqueous GABA solution (62.5 μL) were mixed, diluted with UltraPure DNase/RNase-Free Distilled Water up to a liquid volume of 250 μL so as to obtain final concentrations: 8 ng/μL Cas9 protein, 0.68 ng/μL tracrRNA, 0.59 ng/μL MmDmd Ex51 crRNA, 50 mM HEPES, 250 mM GABA and 367 mM sodium chloride, and incubated at normal temperature for 15 minutes. Note that the addition amount of the 5 M aqueous sodium chloride solution was changed to 24.25 μL in the case of 485 mM sodium chloride and the addition amount was changed to 27.5 μL in the case of 550 mM sodium chloride, respectively.

NC(=O)N[C@@H](CC(=O)O)C(=O)O [N-Carbamyl-L-aspartic acid]
Compound activity: EGFP positive rate (%): 8.53%
